The values below are quoted from earlier work in patent US20040202732A1, “Composition to promote weight loss” (priority 2003, published 2004).

The conditions of data set [1]: three daily doses for 2 weeks, exercise 90 minutes three times weekly.
For data set [2] the following is noted: 4-week treatment.
For data set [3] the following is noted: mice fed CLA supplemented diets for 28 days.
Data set [4] relates to prostaglandin E2 production.
For data set [5] the following is noted: 12 weeks, fifty-three healthy men and women.
The conditions of data set [6]: 12 weeks, 3.4-g and higher CLA groups, sixty overweight or obese subjects.
For data set [7] the following is noted: caffeine administration alone.

Take Conjugated Linoleic Acid [CLA]: in data set [1], the body weight loss result is “no effects”. Also, the body fat entry in data set [1] (versus placebo) is “significantly reduced”. Further, the “inhibition of IL-1” value with IL-1 is recorded as “can inhibit”. In addition, the reduction from waistlines entry in data set [2] (average) is recorded as “an average of one-inch reduction”. Further, the “sagittal abdominal diameter (SAD)” value in [2] (twenty-five men with significant abdominal fat) is “significant reduction”. Further, in [3], the body mass result is recorded as “maintained body mass”, the “increase of body protein” value is “up to 13%” and the “reduction of body fat” value was “up to 60%”. Moreover, the “inhibition of prostaglandin E2 production” value in data set [4] is recorded as “can inhibit”. For the same compound, the “decrease of proportion of body fat” value in [5] is on record as 3.8%. Moreover, the “body fat mass (BFM)” value in data set [6] was “significant reduction”.

Turning to `Cn1c(=O)c2c(ncn2C)n(C)c1=O` [caffeine], the “increased resting energy expenditure and fat oxidation” value in [7] is “did not occur”.

Regarding `O=C(O[C@@H]1Cc2c(O)cc(O)cc2O[C@@H]1c1cc(O)c(O)c(O)c1)c1cc(O)c(O)c(O)c1` [EGCG, epigallocatechin galate], the “inhibition of prostaglandin E2 production” value in data set [4] is recorded as “can inhibit”. In addition, the “inhibition of TNF-alpha” value in the data set with TNF-alpha is “can inhibit”.
